Holding throughout (assay type): cell-based
In assay [1] the target is EGFR (A767_dupASV) expressing Ba/F3 stable cell line (Homo sapiens, UniProt P00533, DUP767-769, cells depend on it). The experiment in a line: Cellular proliferation (Alamar Blue) assay, EGFR A767_dupASV Ba/F3. Particulars: 72 hr, read-out: A767 IC50. Summed up:
(§1)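 Ba/F3 cells stably expressing the mutant were seeded at 15,000 per well in RPMI with 10% FBS and left 16-18 hours at 37 degree Celsius. Compounds were then added in 3-fold serial dilutions (final 10-0.0005 μM) for 72 hr, and viability was read with Alamar Blue after 3 hours.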
Background: Resazurin is reduced to fluorescent resorufin, in cell work by metabolically active cells.

Assay [2] has as its system A431 cells. The experiment in a line: Cellular proliferation (Alamar Blue) assay, A431.
The target in assay [3] is EGFR(D770_N771insSVD) expressing Ba/F3 stable cell line (Homo sapiens, UniProt P00533, DUP768-770, cells depend on it). Put plainly: Cellular proliferation (Alamar Blue) assay, EGFR D770_N771insSVD Ba/F3. Particulars: 72 hr, read-out: D770 IC50. In a few lines:
as §1

The target of assay [4] is EGFR (H773insNPH) expressing Ba/F3 stable cell line (Homo sapiens, UniProt P00533, DUP771-773, cells depend on it). Put plainly: Cellular proliferation (Alamar Blue) assay, EGFR H773insNPH Ba/F3. To be noted: 72 hr, read-out: NPH IC50. The protocol: • 1. EGFR(D770_N771insSVD) expressing Ba/F3 stable cell line • 2. EGFR (A767_dupASV) expressing Ba/F3 stable cell line • 3. A431 cells • 4. EGFR (H773insNPH) expressing Ba/F3 stable cell line • 5. HER2 (A775_G776insYVMA) expressing Ba/F3 stable cell line Assay Procedure: • 1. Seed cells at 5000 for A431 and 15,000 cells for Ba/F3 in 100 μL/well in complete media (for A431: DMEM with […] and for Ba/F3 cells: RPMI with 10% FBS) in 96-well tissue culture plate. Leave outer wells without cells for background measurements. Incubate at 37 degree Celsius in […] humidified incubator for 16-18 hours. • 2. Add 0.025 ml of 5× concentration compound dilution or DMSO control. Final compound concentration range is 10-0.0005 μM prepared in 3-fold serial dilutions. Incubate for 72 hr at 37 degree Celsius in […] humidified incubator. • 3. Add 0.0125 ml Alamar Blue™ reagent to each well with multi-channel pipette and tap gently on each side of the plate to mix. Incubate for 3 hours at 37 degree Celsius in 5% CO2 humidified incubator. • 4. […] Data analysis was performed using XLfit 5.5.0.5.
Chain of EGFR (H773insNPH) expressing Ba/F3 stable cell line (P00533 with tags, fused parts or gaps DUP771-773): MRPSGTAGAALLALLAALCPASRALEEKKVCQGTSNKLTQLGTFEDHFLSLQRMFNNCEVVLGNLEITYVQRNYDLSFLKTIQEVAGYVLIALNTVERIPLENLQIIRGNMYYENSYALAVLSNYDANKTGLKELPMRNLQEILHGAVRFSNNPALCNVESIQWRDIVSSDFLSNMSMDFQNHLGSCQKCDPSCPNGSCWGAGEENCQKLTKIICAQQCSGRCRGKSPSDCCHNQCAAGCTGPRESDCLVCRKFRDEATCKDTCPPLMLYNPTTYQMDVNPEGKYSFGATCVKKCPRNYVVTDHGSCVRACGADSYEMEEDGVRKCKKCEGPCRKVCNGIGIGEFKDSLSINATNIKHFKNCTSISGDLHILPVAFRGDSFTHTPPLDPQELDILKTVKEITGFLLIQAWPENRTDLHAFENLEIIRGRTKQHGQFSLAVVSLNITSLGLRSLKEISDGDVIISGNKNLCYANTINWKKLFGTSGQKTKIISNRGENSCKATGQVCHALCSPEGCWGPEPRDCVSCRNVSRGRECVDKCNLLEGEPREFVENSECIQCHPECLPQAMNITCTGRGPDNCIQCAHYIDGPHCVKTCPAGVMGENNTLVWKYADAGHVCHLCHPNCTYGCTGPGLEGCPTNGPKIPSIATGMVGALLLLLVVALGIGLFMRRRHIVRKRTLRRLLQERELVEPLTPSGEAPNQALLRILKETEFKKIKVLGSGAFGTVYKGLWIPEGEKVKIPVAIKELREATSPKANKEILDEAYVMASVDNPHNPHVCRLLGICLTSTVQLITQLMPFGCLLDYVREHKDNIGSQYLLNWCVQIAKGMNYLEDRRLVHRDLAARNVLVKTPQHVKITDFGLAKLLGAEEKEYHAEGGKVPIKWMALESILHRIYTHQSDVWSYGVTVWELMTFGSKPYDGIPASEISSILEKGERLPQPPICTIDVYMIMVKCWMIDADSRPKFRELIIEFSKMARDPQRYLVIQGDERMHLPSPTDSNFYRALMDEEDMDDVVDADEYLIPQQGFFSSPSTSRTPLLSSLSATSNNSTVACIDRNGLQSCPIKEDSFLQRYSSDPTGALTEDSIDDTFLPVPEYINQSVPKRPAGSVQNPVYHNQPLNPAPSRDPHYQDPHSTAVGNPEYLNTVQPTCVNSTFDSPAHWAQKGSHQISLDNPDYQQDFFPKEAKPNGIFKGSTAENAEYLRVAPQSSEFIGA

Assay [5] addresses HER2 (A775_G776insYVMA) expressing Ba/F3 stable cell line (Homo sapiens, UniProt P04626, DUP772-775, cells depend on it). The experiment in a line: Cellular proliferation (Alamar Blue) assay, HER2 A775_G776insYVMA Ba/F3. Particulars: 72 hr, read-out: YVMA IC50. Summed up:
as §1

Where [6] appears, read: Homo sapiens, A-431; A431 cells, Alamar Blue, 72 hr; read-out: A431 IC50.

SMILES strings stand for the structures. Counter-ions that a name gives are not always drawn. Like-named read-outs stand apart in the source and are kept apart here.

A word on the IC50: it is the point on the concentration scale where inhibition reaches its midpoint.

Chain of EGFR(D770_N771insSVD) expressing Ba/F3 stable cell line (P00533 with tags, fused parts or gaps DUP768-770): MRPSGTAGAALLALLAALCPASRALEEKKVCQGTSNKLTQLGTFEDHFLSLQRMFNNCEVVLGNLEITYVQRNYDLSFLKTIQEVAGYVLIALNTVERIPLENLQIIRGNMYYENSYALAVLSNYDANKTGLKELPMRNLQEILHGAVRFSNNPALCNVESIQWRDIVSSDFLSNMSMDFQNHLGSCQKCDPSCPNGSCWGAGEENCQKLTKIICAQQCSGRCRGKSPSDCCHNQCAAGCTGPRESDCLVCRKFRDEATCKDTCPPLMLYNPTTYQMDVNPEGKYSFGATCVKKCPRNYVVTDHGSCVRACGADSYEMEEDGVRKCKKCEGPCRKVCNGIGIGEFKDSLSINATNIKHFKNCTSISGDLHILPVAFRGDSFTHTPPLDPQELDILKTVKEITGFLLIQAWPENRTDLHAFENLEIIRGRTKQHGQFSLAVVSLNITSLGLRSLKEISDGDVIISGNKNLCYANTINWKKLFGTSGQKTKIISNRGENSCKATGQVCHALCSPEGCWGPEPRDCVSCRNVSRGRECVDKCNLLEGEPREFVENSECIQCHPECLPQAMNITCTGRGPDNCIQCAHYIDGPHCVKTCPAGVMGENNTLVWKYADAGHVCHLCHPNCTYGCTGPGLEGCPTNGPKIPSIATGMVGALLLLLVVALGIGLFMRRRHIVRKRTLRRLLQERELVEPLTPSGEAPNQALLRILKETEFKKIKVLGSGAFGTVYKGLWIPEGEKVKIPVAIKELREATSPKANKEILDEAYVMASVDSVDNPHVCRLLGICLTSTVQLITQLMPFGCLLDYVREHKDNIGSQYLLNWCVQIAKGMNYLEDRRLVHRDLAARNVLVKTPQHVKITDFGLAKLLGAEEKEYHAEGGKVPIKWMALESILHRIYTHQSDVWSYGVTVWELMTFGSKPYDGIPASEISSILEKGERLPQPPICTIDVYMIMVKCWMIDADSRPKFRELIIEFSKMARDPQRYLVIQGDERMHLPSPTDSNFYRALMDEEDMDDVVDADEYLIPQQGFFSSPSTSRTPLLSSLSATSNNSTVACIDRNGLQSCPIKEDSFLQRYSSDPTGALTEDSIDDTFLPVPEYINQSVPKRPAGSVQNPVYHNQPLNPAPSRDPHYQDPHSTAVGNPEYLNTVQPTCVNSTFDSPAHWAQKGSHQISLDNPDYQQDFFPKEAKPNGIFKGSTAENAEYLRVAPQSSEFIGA
Chain of HER2 (A775_G776insYVMA) expressing Ba/F3 stable cell line (P04626 with tags, fused parts or gaps DUP772-775): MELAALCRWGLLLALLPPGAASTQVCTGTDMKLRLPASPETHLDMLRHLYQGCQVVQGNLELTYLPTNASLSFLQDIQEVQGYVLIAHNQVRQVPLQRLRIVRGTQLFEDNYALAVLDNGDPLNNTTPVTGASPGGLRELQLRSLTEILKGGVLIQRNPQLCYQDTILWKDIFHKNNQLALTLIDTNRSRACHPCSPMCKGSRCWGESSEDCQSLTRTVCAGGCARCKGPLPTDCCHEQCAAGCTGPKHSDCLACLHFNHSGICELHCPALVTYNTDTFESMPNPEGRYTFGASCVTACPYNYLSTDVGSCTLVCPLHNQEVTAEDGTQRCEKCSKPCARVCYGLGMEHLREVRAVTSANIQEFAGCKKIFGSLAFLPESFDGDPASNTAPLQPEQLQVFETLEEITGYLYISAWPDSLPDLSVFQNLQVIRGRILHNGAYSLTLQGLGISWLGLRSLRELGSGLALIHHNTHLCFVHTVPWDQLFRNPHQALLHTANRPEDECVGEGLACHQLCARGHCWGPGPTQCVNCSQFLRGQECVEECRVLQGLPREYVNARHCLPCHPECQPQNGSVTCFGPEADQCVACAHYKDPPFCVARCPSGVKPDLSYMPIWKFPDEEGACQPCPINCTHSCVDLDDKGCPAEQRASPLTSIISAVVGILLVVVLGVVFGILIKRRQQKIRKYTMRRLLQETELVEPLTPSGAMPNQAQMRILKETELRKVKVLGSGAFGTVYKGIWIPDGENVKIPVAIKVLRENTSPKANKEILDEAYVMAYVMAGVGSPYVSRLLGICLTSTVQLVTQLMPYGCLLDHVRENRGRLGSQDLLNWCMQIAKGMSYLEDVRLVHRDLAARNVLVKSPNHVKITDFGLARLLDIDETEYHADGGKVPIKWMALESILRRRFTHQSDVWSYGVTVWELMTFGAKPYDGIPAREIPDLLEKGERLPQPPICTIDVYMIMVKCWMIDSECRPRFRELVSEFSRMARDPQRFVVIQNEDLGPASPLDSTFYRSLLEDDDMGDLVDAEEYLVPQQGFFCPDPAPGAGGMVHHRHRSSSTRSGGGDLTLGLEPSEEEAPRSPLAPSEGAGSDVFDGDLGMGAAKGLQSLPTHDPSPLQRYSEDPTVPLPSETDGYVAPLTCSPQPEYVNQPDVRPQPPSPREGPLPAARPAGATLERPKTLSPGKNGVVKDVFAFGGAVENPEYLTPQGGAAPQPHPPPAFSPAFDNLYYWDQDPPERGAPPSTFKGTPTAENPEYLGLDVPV
Chain of EGFR (A767_dupASV) expressing Ba/F3 stable cell line (P00533 with tags, fused parts or gaps DUP767-769): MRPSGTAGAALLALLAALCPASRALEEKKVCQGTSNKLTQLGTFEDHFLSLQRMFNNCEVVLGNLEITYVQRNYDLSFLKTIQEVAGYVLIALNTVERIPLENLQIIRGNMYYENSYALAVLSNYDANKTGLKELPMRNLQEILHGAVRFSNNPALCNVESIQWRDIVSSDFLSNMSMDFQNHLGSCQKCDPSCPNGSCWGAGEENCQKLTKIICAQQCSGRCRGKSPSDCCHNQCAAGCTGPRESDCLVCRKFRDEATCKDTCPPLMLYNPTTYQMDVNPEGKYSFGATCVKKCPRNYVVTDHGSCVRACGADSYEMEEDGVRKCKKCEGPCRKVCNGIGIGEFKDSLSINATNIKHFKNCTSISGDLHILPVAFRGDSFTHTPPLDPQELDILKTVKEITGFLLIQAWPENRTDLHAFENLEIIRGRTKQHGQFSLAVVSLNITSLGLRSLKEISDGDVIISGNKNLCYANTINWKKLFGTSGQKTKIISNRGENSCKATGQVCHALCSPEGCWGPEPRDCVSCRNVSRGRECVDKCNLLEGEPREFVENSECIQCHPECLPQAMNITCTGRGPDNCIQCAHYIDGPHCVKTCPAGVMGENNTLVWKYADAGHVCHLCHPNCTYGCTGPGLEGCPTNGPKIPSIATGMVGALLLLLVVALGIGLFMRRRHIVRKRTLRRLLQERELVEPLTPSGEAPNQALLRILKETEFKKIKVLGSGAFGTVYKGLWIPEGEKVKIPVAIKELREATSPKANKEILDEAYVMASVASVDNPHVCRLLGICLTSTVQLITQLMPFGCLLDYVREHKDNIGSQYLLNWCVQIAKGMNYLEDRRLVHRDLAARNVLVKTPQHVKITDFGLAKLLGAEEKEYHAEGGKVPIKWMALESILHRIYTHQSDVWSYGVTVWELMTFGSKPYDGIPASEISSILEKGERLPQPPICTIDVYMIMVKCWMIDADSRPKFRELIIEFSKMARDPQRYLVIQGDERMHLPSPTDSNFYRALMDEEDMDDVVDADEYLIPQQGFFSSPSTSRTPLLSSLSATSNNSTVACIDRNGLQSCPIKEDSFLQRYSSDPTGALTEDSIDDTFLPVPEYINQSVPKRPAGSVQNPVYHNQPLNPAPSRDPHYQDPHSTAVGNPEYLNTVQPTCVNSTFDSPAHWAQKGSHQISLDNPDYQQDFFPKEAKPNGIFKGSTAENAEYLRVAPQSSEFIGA

On to `CN(C)C/C=C/C(=O)Nc1cccc(Nc2nc(Nc3cn(C)nc3Cl)ncc2C(F)(F)F)c1` [Compound 54, (E)-N-(3-((2-((3-chloro-1-methyl-1H-pyrazol-4-yl)amino)-5-(trifluoromethyl)pyrimidin-4-yl)amino)phenyl)-4-(dimethylamino)but-2-enamide], for which the results for the GI50 in assay [1], in assay [3] and in assay [4] were 1040 nM, 296 nM and 380 nM, respectively. Moreover, the IC50 in assay [2] (setting [6]) was found to be 4530 nM.
For the compound `C=CC(=O)Nc1ccc(F)c(Nc2nc(Nc3cnn(C)c3)ncc2-c2cccc(N(C)CCN(C)C)c2)c1` [Compound 125, N-(3-((5-(3-((2-(dimethylamino)ethyl)(methyl)amino)phenyl)-2-((1-methyl-1H-pyrazol-4-yl)amino)pyrimidin-4-yl)amino)-4-fluorophenyl)acrylamide], the GI50 in assay [1], in assay [3] and in assay [4] was above 10000 nM throughout. In addition, the IC50 in assay [2] (setting [6]) is above 10000 nM.
`C=CC(=O)Nc1cccc(Nc2nc(Nc3cnn(C)c3)ncc2NC(=O)c2ccccc2)c1` [Compound 28, N-(4-((3-acrylamidophenyl)amino)-2-((1-methyl-1H-pyrazol-4-yl)amino)pyrimidin-5-yl)benzamide]: the GI50 in assay [1] was 2240 nM; in assay [3], 3130 nM; in assay [4], 3010 nM. Further, the IC50 in assay [2] (setting [6]) is above 10000 nM.
Regarding `C=CC(=O)Nc1ccc(F)c(Nc2nc(Nc3cnn(CC(C)(C)O)c3)ncc2Cl)c1` [Compound 26, N-(3-((5-chloro-2-((1-(2-hydroxy-2-methylpropyl)-1H-pyrazol-4-yl)amino)pyrimidin-4-yl)amino)-4-fluorophenyl)acrylamide], the GI50 in assay [1] is 2450 nM; in assay [3], 4860 nM; in assay [4], 2090 nM. The IC50 in assay [2] (setting [6]) stood at 7410 nM.
Consider `C=CC(=O)Nc1ccc(F)c(Nc2nc(Nc3cnn(C)c3)ncc2-c2ccc(Cl)nc2)c1` [Compound 101, N-(3-((5-(6-chloropyridin-3-yl)-2-((1-methyl-1H-pyrazol-4-yl)amino)pyrimidin-4-yl)amino)-4-fluorophenyl)acrylamide], for which the GI50 in assay [1] turned out to be 13 nM; in assay [4] it was 30 nM. For the same compound, the IC50 in assay [2] (setting [6]) was found to be 56 nM.
For `C=CC(=O)Nc1ccc(F)c(Nc2nc(Nc3cnn(C)c3)ncc2-c2cnc(C(F)(F)F)nc2)c1` [Compound 123, N-(4-fluoro-3-((2-((1-methyl-1H-pyrazol-4-yl)amino)-2′-(trifluoromethyl)-[5,5′-bipyrimidin]-4-yl)amino)phenyl)acrylamide], the GI50 is 16 nM in assay [1], 24 nM in assay [3] and 30 nM in assay [4].
Consider `C=CC(=O)Nc1ccc(F)c(Nc2nc(Nc3cnn(C)c3)ncc2-c2cncc(Cl)c2)c1` [Compound 102, N-(3-((5-(5-chloropyridin-3-yl)-2-((1-methyl-1H-pyrazol-4-yl)amino)pyrimidin-4-yl)amino)-4-fluorophenyl)acrylamide], for which the GI50 was 31 nM in assay [1], 35 nM in assay [3] and 48 nM in assay [4]. Further, the IC50 in assay [2] (setting [6]) amounted to 168 nM.
The matching figures for `C=CC(=O)Nc1ccc(F)c(Nc2nc(Nc3cnn(C4CCC(O)CC4)c3)ncc2Cl)c1` (centres unmarked) [Compound 1, N-(3-((5-chloro-2-((1-(4-hydroxycyclohexyl)-1H-pyrazol-4-yl)amino)pyrimidin-4-yl)amino)-4-fluorophenyl)acrylamide]: 930 nM, 1030 nM, 796 nM and 3920 nM.
For the compound `C=CC(=O)Nc1cccc(Nc2nc(Nc3cnn(C)c3)ncc2C(=O)NC(C)c2ccccc2)c1` (centres unmarked) [Compound 34, 4-((3-acrylamidophenyl)amino)-2-((1-methyl-1H-pyrazol-4-yl)amino)-N-(1-phenylethyl)pyrimidine-5-carboxamide], the GI50 is 9310 nM in assay [1], 9520 nM in assay [3] and above 10000 nM in assay [4]. For the same compound, in assay [2] (setting [6]), the IC50 was above 10000 nM.
Consider `C=CC(=O)Nc1ccc(F)c(Nc2nc(Nc3cnn(C)c3)ncc2-c2ccc3c(ccn3C)c2)c1` [Compound 77, N-(4-fluoro-3-((5-(1-methyl-1H-indol-5-yl)-2-((1-methyl-1H-pyrazol-4-yl)amino)pyrimidin-4-yl)amino)phenyl)acrylamide trifluoroacetate], for which the GI50 in assay [1] worked out at 774 nM; in assay [3], 299 nM; in assay [5], 2750 nM. In assay [2] (setting [6]), the IC50 was determined as 1030 nM.
`C=CC(=O)Nc1ccc(F)c(Nc2nc(Nc3cnn(C)c3)ncc2NS(=O)(=O)c2ccccc2)c1` [Compound 51, N-(4-fluoro-3-((2-((1-methyl-1H-pyrazol-4-yl)amino)-5-(phenylsulfonamido)pyrimidin-4-yl)amino)phenyl)acrylamide]: the GI50 in assay [1], in assay [3] and in assay [5] was above 10000 nM each time. The IC50 in assay [2] (setting [6]) was above 10000 nM.
Take `C=CC(=O)Nc1cccc(Nc2nc(Nc3cnn(C)c3)ncc2CN(Cc2ccccc2)C(C)=O)c1` [Compound 48, N-(3-((5-((N-benzylacetamido)methyl)-2-((1-methyl-1H-pyrazol-4-yl)amino)pyrimidin-4-yl)amino)phenyl)acrylamide]: the values for the GI50 in assay [1], in assay [3] and in assay [5] were above 10000 nM, 8800 nM and above 10000 nM, respectively. Further, the IC50 in assay [2] (setting [6]) was above 10000 nM.
Consider `Cn1cc(Nc2ncc(Cl)c(Nc3cc(NC(=O)/C=C/CF)ccc3F)n2)cn1` [Compound 7, (E)-N-(3-((5-chloro-2-((1-methyl-1H-pyrazol-4-yl)amino)pyrimidin-4-yl)amino)-4-fluorophenyl)-4-fluorobut-2-enamide], for which the GI50 is 995 nM in assay [1], 3270 nM in assay [3] and 3220 nM in assay [5]. Besides, in assay [2] (setting [6]), the IC50 amounted to 8730 nM.
The matching figures for `C=CC(=O)Nc1ccc(F)c(Nc2nc(Nc3cnn(C)c3)ncc2-c2ccc3cccnc3c2)c1` [Compound 131, N-(4-fluoro-3-((2-((1-methyl-1H-pyrazol-4-yl)amino)-5-(quinolin-7-yl)pyrimidin-4-yl)amino)phenyl)acrylamide]: 758 nM, 202 nM, 348 nM and 365 nM.
The matching figures for `C=CC(=O)Nc1ccc(F)c(Oc2nc(Nc3cnn(CCO)c3)ncc2Cl)c1` [Compound 167, N-(3-((5-chloro-2-((1-(2-hydroxyethyl)-1H-pyrazol-4-yl)amino)pyrimidin-4-yl)oxy)-4-fluorophenyl)acrylamide]: 1330 nM, 2150 nM, 1750 nM and above 10000 nM.
The matching figures for `CN(C)C/C=C/C(=O)Nc1ccc(Cl)c(Nc2nc(Nc3cnn(C)c3)ncc2Cl)c1` [Compound 9, (E)-N-(4-chloro-3-((5-chloro-2-((1-methyl-1H-pyrazol-4-yl)amino)pyrimidin-4-yl)amino)phenyl)-4-(dimethylamino)but-2-enamide]: above 10000 nM, 9480 nM, 7490 nM and 8020 nM.
Take `C=CC(=O)Nc1cccc(Nc2nc(Nc3cnn(C)c3)ncc2CN(C(C)=O)C(C)c2ccccc2)c1` (centres unmarked) [Compound 19, N-(3-((2-((1-methyl-1H-pyrazol-4-yl)amino)-5-((N-(1-phenylethyl)acetamido)methyl)pyrimidin-4-yl)amino)phenyl)acrylamide]: the GI50 in assay [1], in assay [3] and in assay [5] was above 10000 nM throughout. Moreover, the IC50 in assay [2] (setting [6]) is above 10000 nM.
For the compound `C=CC(=O)Nc1ccc(F)c(Nc2nc(Nc3cnn(C)c3)ncc2-c2ccc(CC(F)(F)F)cc2)c1` [Compound 130, N-(4-fluoro-3-((2-((1-methyl-1H-pyrazol-4-yl)amino)-5-(4-(2,2,2-trifluoroethyl)phenyl)pyrimidin-4-yl)amino)phenyl)acrylamide trifluoroacetate], the GI50 in assay [1] was 27 nM; in assay [3] it was 26 nM; in assay [5], 83 nM. Besides, the IC50 in assay [2] (setting [6]) turned out to be 8 nM.
As for `C=CC(=O)Nc1ccc(F)c(Nc2nc(Nc3cn(C)nc3Cl)ncc2-c2ccc(Br)cc2)c1` [Compound 204, N-(3-((5-(4-bromophenyl)-2-((3-chloro-1-methyl-1H-pyrazol-4-yl)amino)pyrimidin-4-yl)amino)-4-fluorophenyl)acrylamide], the GI50 in assay [1] amounted to 131 nM; in assay [3] it was 93 nM; in assay [5], 688 nM. Besides, the IC50 in assay [2] (Homo sapiens, A-431; A431 cells, 72 hr, Alamar Blue; read-out: A431 IC50) is 28 nM.

For the origin of these results see patent US12686673B2 (Blueprint Medicines Corporation, priority 2020, dated 2026).
